The text below walks through data of patent US11382947B2, “Targeting G3BP proteins to accelerate nerve regeneration” (University of South Carolina, priority 2017, dated 2022).

Common to all, as to type: cell-based, rat
Assay [1] concerns DRG neurons. The assay is described as follows: Axon growth of DRG neurons transfected with G3BP1 constructs or siRNA. To be noted: siRNA-mediated knockdown, 100 nM siRNA vs. control siRNA; FIG. 15C. As to the method:
For primary neuronal cultures, L4-5 DRG were harvested in Hybernate-A medium (BrainBits) and then dissociated as known to those of skill in the art. After centrifugation and washing in DMEM/F12 (Life Technologies), cells were resuspended in DMEM/F12, 1×N1 supplement (Sigma), 10% fetal bovine serum (Hyclone), and 10 μM cytosine arabinoside (Sigma). Dissociated DRGs were plated immediately on laminin/poly-L-lysine-coated coverslips or transfected (see below) and then plated on coated coverslips.
For DRG neuron transfection, dissociated ganglia were pelleted by centrifugation at 100×g for 5 min and resuspended in ‘nucleofector solution’ (Rat Neuron Nucleofector kit; Lonza). 5-7 μg plasmid was electroporated using an AMAXA Nucleofector apparatus (program SCN-8; Lonza). For siRNA transfection, 100 nM siRNAs (Dharmacon) were used with DharmaFECT 3 reagent and incubated for 36 h. G3BP1 siRNA sequence: 5′ […] 3′. Non-targeting siRNAs (siCon) were as control. RTddPCR was used to test the efficiency of depletion (see below). HEK293T cells were transfected using Lipofectamine® 2000 per manufacturer's instructions (Invitrogen). AAV5 preparations were titrated in DRG cultures by incubating with […] particles of AAV5 overnight.
For neurite outgrowth, images from 60 h DRG cultures were analyzed for neurite outgrowth using WIS-Neuromath. […]

In assay [2] the test system is DRG neurons. The assay is described as follows: Axon growth of dissociated DRG neuron cultures treated with Tat-fused G3BP1 peptides. The method, then:
For primary neuronal cultures, L4-5 DRG were harvested in Hybernate-A medium (BrainBits) and then dissociated as known to those of skill in the art. After centrifugation and washing in DMEM/F12 (Life Technologies), cells were resuspended in DMEM/F12, 1×N1 supplement (Sigma), 10% fetal bovine serum (Hyclone), and 10 μM cytosine arabinoside (Sigma). Dissociated DRGs were plated immediately on laminin/poly-L-lysine-coated coverslips or transfected (see below) and then plated on coated coverslips. […] Neurite outgrowth was assessed 24 h after addition of peptides. For the cortical cultures, 10 μM peptide was applied to the axonal compartment at 3 d in vitro (DIV) and axonal growth was assessed at 6 DIV. For neurite outgrowth, images from 60 h DRG cultures were analyzed for neurite outgrowth using WIS-Neuromath. Axon morphology was visualized using GFP and/or NF immunofluorescence as described.

Assay [3] concerns protein synthesis in DRG neurons. Briefly: Puromycinylation assay for newly synthesized proteins in DRG neurons. The conditions noted are these: peptide treatment, compared to control and 168-189 peptide, FIG. 12D. As to the method: To visualize newly synthesized proteins in cultured neurons, the current disclosure used the Click-iT® Plus OPP Protein Synthesis Assay Kit per manufacturer's instructions (Invitrogen/Life Technologies). Briefly, 3 DIV cultures were incubated with 20 μM O-propargyl-puromycin (OPP) for 30 min at 37° C. OPP-labeled proteins were detected by crosslinking with Alexa Fluor-594 picolyl azide molecule. Coverslips were then mounted with Prolong Gold Antifade (Invitrogen) and imaged with Leica DMI6000 epifluorescent microscope as above. ImageJ was used to quantify the Puromycinylation signals in distal axons and cell bodies.

Another assay concerns cortical neurons. The assay is described as follows: Axon growth of cortical neurons in microfluidic devices, peptide applied to axonal compartment. To be noted: 10 μM peptide applied to axonal compartment at 3 DIV, assessed at 6 DIV; FIG. 11C. As to the method: For cortical neuron cultures, E18 cortices were dissected in Hibernate E (BrainBits) and dissociated using the Neural Tissue Dissociation kit (Miltenyi Biotec). […] After washing and centrifugation, neurons were seeded at a density of 1×10^5 cells per poly-D-lysine-coated microfluidic device (Xona Microfluidics). NbActive-1 medium (BrainBits) supplemented with 100 U/ml of Penicillin-Streptomycin (Life Technologies), 2 mM L-Glutamine (Life Technologies), and 1×[…] supplement (R&D Systems) was used as culture medium. For peptide treatments, 10 μM Tat-fused peptides were added to dissociated DRG cultures at 2 or 12 h after plating. Neurite outgrowth was assessed 24 h after addition of peptides. For the cortical cultures, 10 μM peptide was applied to the axonal compartment at 3 d in vitro (DIV) and axonal growth was assessed at 6 DIV.

Assay [4] relates to axonal G3BP1-mCh aggregates. Briefly: Live cell imaging of G3BP1-mCherry granules in DRG axons. As to the method:
DRG neurons were transfected with G3BP1-mCherry, and 36 h later distal axons were imaged using Leica SP8X confocal microscope with environmental chamber maintained at 37° C., 5% CO2 (with 63×/1.4 NA oil immersion objective). Confocal pinhole was set to 0.43 airy units. G3BP1-mCherry signals were imaged in axon shaft every 2 sec for 100 frames (at 540 nm excitation and 23% white light laser power; 565-597 nm emission). To study the effect of the G3BP1 190-208 peptide on the G3BP1-mCherry granules, 10 μM FITC-conjugated peptide was added to the media and 15 min later imaging was continued. For G3BP1-mCherry aggregates, a 100 μm of the axon shaft was considered (≥200 μm from cell body). Thresholding was applied to acquired image sequences using ImageJ to generate binary masks. ImageJ particle analyzer was used for analysis. G3BP1 aggregates with area of ≥1 μm2 were considered as SG-like structures. For analyzing the G3BP1 aggregate velocity, ImageJ […] plug-in was used.

Assay [5] concerns axonal mRNA translation in DRG neurons. The assay is described as follows: FRAP of axonally targeted translation reporters in DRG neurons. The conditions noted are these: G3BP1-overexpressing DRGs, 10 μM peptide; FIG. 14C. The method, then: FRAP was used to test for axonal mRNA protein synthesis using diffusion-limited GFP^MYR and mCherry^MYR reporters as described with minor modifications. In each case, DRG neurons were co-transfected with […]+mCherry^MYR5'/3'gap43 or […]β1+mCherry^MYR5'/3'gap43 so that recovery of both reporters could be analyzed simultaneously. Cells were maintained at 37° C., 5% CO2 during imaging sequences. 488 nm and 514 nm laser lines on Leica SP8X confocal microscope were used to bleach GFP and mCherry signals, respectively (Argon laser at 70% power, pulsed every 0.82 sec for 80 frames). Pinhole was set to 3 Airy units to ensure full thickness bleaching and acquisition (63×/1.4 NA oil immersion objective). Prior to photobleaching, neurons were imaged every 60 sec for 2 min to acquire baseline fluorescence the region of interest (ROI; 15% laser power, 498-530 nm for GFP and 565-597 nm for mCherry emissions, respectively). The same excitation and emission parameters were used to assess recovery over 15 min post-bleach with images acquired at 30 sec intervals. To determine if fluorescence recovery in axons was from translation, cultures were treated with 150 μg/ml cycloheximide (Sigma) or 100 μM anisomycin (Sigma) for 30 min. prior to photobleaching for […]+mCherry^MYR5'/3'gap43 and […] transfected DRGs, respectively. For peptide treatments, G3BP1-mCh transfected DRG neurons were treated with 10 μM G3BP1 peptides after acquiring the baseline expression values. Photobleaching followed by analyses of recovery was performed after 30 min of peptide exposure. Fluorescent intensities in the ROIs were calculated by the Leica LASX software. For normalizing across experiments, fluorescence intensity value at t=0 min post-bleach from each image sequence was set as 0%. The percentage of fluorescence recovery at each time point after photobleaching was then calculated by normalizing relative to the pre-bleach fluorescence intensity (set at 100%).

Setting [6] is: 10 μM peptide added to DRG cultures immediately after plating, FIG. 16B.

“Also recorded” adds a separate entry of the source.

“5′ ccacauaggagcugggaauuu 3′ [G3BP1 siRNA]”: the axon growth entry with DRG neurons [1] is recorded as “significantly increased axon growth”.
As to “Glu Glu Ser Glu Glu Glu Val Glu Glu Pro Glu Glu Arg Gln Gln Ser Pro Glu Val Val Tvr Glv Asn Lvs Lvs Asn Asn Gln Asn Asn Asn [147-166 peptide]”, the axon length result with DRG neurons [2] (setting [6]) is on record as “increased axon length”.
As to “Tvr Glv Asn Lvs Lvs Asn Asn Asn Gln Asn Asn Asn Val Val Glu Pro Glu Pro Glu Pro Glu Pro Glu Pro Glu Pro Glu Pro Val Ser [190-208 peptide]”, the “axonal protein synthesis (Puro incorporation in DRG axons)” value is on record as “significantly increased” in assay [3] (listed as 190-208 G3BP1 peptide) and “increased axonal protein synthesis” in assay [3] (listed as G3BP1 190-208 peptide). Further, the axon length result in the assay with DRG neurons [2] (setting [6]) was “increased axon length”; in the assay with DRG neurons [2] (7 d injury-conditioned (pre-injured) DRG neurons, peptide added at 12 h, assessed at 36 h, FIG. 11C), “significantly increased axon length; also recorded: effectively increase axon growth”; in the assay on DRG neurons [2] (naive DRG neurons, delayed application, peptide added at 12 h, assessed at 36 h, FIG. 11C), “significantly increased axon length; also recorded: effectively increase axon growth”. Besides, the “number of neurites per neuron” value in the assay with DRG neurons [2] (setting [6]) was “increased number of neurites per neuron”. In addition, the axon growth result with cortical neurons is given as “significant increase in axon growth; also recorded: significantly increased axon growth”. Moreover, in assay [4] (10 μM peptide, within 15 min, FIG. 12G), the “axonal G3BP1-mCh aggregates (density along 100 μm axon)” value is reported as “striking decrease”. Further, the “size of remaining SG-like structures in axons” value in assay [4] (after 10 μM peptide treatment, 15 min, FIG. 12H) is reported as “significantly smaller”. In assay [4] (after peptide treatment vs. control conditions), the “motility of remaining aggregates” value was “greater motility”. Moreover, in assay [5], the “axonal translation of GFPMYR5′/3′impβ1 mRNA” value is “did not affect translation”. For the same substance, in assay [5], the “axonal translation of GFPMYR5′/3′nrn1 mRNA” value is listed as “significantly rescued axonal translation”. Besides, the “axonal translation of mChMYR5′/3′gap43 mRNA” value in assay [5] was “did not affect translation”.
